Results from patent US9686992B2, “Pesticidal mixtures including spiroheterocyclic pyrrolidine diones” (Syngenta Participations AG, priority 2012, dated 2017).

What was measured:
[1] = test system: Myzus persicae (Green Peach Aphid); experiment: Myzus persicae feeding/residual contact activity, preventive (sunflower leaf discs); type: in vivo; details: single active ingredient, 6 DAT
Text: (§1) The action to be expected E for a given active ingredient combination obeys the so-called COLBY formula and can be calculated as follows (COLBY, S. R. “Calculating synergistic and antagonistic responses of herbicide combination”. Weeds, Vol. 15, pages 20-22; 1967):
(§2) ppm=milligrams of active ingredient (=a.i.) per liter of spray mixture
(§3) X=% action by active ingredient A) using p ppm of active ingredient
(§4) Y=% action by active ingredient B) using q ppm of active ingredient.
(§5) According to COLBY, the expected (additive) action of active ingredients A)+B) using p+q ppm of active ingredient is
(§6) If the action actually observed (0) is greater than the expected action (E), then the action of the combination is super-additive, i.e. there is a synergistic effect. In mathematical terms the synergism factor SF corresponds to O/E. In the agricultural practice an SF of ≧1.2 indicates significant improvement over the purely complementary addition of activities (expected activity), while an SF of ≦0.9 in the practical application routine signals a loss of activity compared to the expected activity.
Myzus persicae (Green Peach Aphid):
Feeding/Residual Contact Activity, Preventive
Sunflower leaf discs were placed on agar in a 24-well microtiter plate and sprayed with the DMSO test solutions of Mixtures (as provided by Table 45). After drying, the leaf discs were infested with an aphid population of mixed ages. After an incubation period of 6 DAT (days after treatment), samples were checked for mortality.

[2] = test system: Tetranychus urticae (Two-Spotted Spider Mite); experiment: Tetranychus urticae feeding/contact activity, preventive (bean leaf discs); type: in vivo; details: single active ingredient, mobile stages
Text: as §1, §2, §3, §4, §5, §6
Tetranychus urticae (Two-Spotted Spider Mite): Feeding/Contact Activity, Preventive
Bean leaf discs on agar in 24-well microtiter plates were sprayed with the DMSO test solutions of certain Mixtures (as provided by Table 45). After drying, the leaf discs were infested with mite populations of mixed ages. 8 days later, discs were checked for mortality against mobile stages.

Compound: N#CCNC(=O)c1cnccc1C(F)(F)F [Flonicamid]
- AVERAGE DEAD IN % AFTER 6 DAYS ([1]; 0.75 ppm AI): 0%
- AVERAGE DEAD IN % AFTER 6 DAYS ([1]; 1.5 ppm AI): 0%
- AVERAGE DEAD IN % AFTER 6 DAYS ([1]; 3 ppm AI): 7.5%
- AVERAGE DEAD IN % AFTER 6 DAYS ([1]; 6 ppm AI): 40%
- AVERAGE DEAD IN % AFTER 6 DAYS ([1]; 12 ppm AI): 82.5%
- AVERAGE DEAD IN % AFTER 8 DAYS ([2]; 50 ppm AI): 0%
- AVERAGE DEAD IN % AFTER 8 DAYS ([2]; 100 ppm AI): 0%
- AVERAGE DEAD IN % AFTER 8 DAYS ([2]; 200 ppm AI): 0%
- AVERAGE DEAD IN % AFTER 8 DAYS ([2]; 400 ppm AI): 0%
- AVERAGE DEAD IN % AFTER 8 DAYS ([2]; 800 ppm AI): 12.5%
